Measurements as given in the supplement of paper PMC6045584.
± gives the standard deviation of the averaged measurements.

How the values were obtained:
NILOTINIB = compound: Cc1cn(-c2cc(NC(=O)c3ccc(C)c(Nc4nccc(-c5cccnc5)n4)c3)cc(C(F)(F)F)c2)cn1 [NILOTINIB]; assay: surviving fraction relative to DMSO-only wells; higher = less growth inhibition; settings: exposure time: 5 days
Procedure, shortened: (§1)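 Log-phase tumour cells were seeded at 250–500 per well in 384-well plates and, from 24 hours after seeding, exposed continuously for five days to inhibitors at 0.5, 1, 5, 10, 50, 100, 500 and 1000 nM. Surviving fraction is CellTiter-Glo luminescence normalised to the median of DMSO-only wells. Luminescence was measured after 10 minutes at room temperature, and only lines screened three times with replicate Pearson r >0.7 and median Z' >0.3 were kept.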

AFIMOXIFENE = compound: CC/C(=C(\c1ccc(O)cc1)c1ccc(OCCN(C)C)cc1)c1ccccc1 [AFIMOXIFENE]; assay: as above; settings: exposure time: 5 days
Procedure, shortened: as §1

| Test System | surviving fraction (NILOTINIB; 0.5 nM) | surviving fraction (NILOTINIB; 1 nM) | surviving fraction (NILOTINIB; 5 nM) | surviving fraction (NILOTINIB; 10 nM) | surviving fraction (NILOTINIB; 50 nM) | surviving fraction (NILOTINIB; 100 nM) | surviving fraction (NILOTINIB; 500 nM) | surviving fraction (NILOTINIB; 1000 nM) | surviving fraction (AFIMOXIFENE; 0.5 nM) | surviving fraction (AFIMOXIFENE; 1 nM) | surviving fraction (AFIMOXIFENE; 5 nM) | surviving fraction (AFIMOXIFENE; 10 nM) | surviving fraction (AFIMOXIFENE; 50 nM) | surviving fraction (AFIMOXIFENE; 100 nM) | surviving fraction (AFIMOXIFENE; 500 nM) | surviving fraction (AFIMOXIFENE; 1000 nM) |
| --- | --- | --- | --- | --- | --- | --- | --- | --- | --- | --- | --- | --- | --- | --- | --- | --- |
| HCC1806 BREAST | 0.977 ± 0.016 | 0.97 ± 0.048 | 1.1 ± 0.14 | 1.02 ± 0.067 | 0.844 ± 0.088 | 0.755 ± 0.083 | 0.666 ± 0.044 | 0.781 ± 0.026 | 1.04 ± 0.065 | 1.1 ± 0.077 | 1.16 ± 0.12 | 1.14 ± 0.048 | 1.15 ± 0.026 | 1.13 ± 0.072 | 0.965 ± 0.028 | 0.682 ± 0.064 |
| HCC1954 BREAST | 0.917 ± 0.15 | 0.891 ± 0.032 | 0.936 ± 0.059 | 0.969 ± 0.019 | 0.589 ± 0.0085 | 0.677 ± 0.12 | 0.8063 ± 0.0032 | 0.739 ± 0.077 | 1.01 ± 0.15 | 1 ± 0.0018 | 1.31 ± 0.18 | 1.33 ± 0.1 | 0.9337 ± 0.0067 | 1.02 ± 0.056 | 0.973 ± 0.1 | 0.883 ± 0.12 |
| HCT15 LARGE INTESTINE | 1.05 ± 0.082 | 1.01 ± 0.071 | 1.07 ± 0.12 | 1.09 ± 0.12 | 1.09 ± 0.1 | 1.12 ± 0.037 | 1.05 ± 0.11 | 1.06 ± 0.091 | 1.08 ± 0.077 | 1.05 ± 0.055 | 1.07 ± 0.085 | 1.06 ± 0.097 | 1.04 ± 0.054 | 1.07 ± 0.025 | 1.07 ± 0.054 | 1.09 ± 0.056 |
| HELA CERVIX | 1.05 ± 0.016 | 1.03 ± 0.053 | 1.09 ± 0.034 | 1 ± 0.033 | 1.09 ± 0.079 | 1.06 ± 0.073 | 1.15 ± 0.074 | 1.091 ± 0.0094 | 1.05 ± 0.063 | 1.02 ± 0.11 | 1.08 ± 0.061 | 1 ± 0.055 | 1.1 ± 0.071 | 1.11 ± 0.065 | 1.17 ± 0.058 | 1.08 ± 0.12 |
| HOS BONE | 1.05 ± 0.024 | 1.014 ± 0.0049 | 1.05 ± 0.033 | 1.05 ± 0.025 | 1.065 ± 0.0095 | 1.04 ± 0.026 | 1.03 ± 0.025 | 1.02 ± 0.041 | 1.02 ± 0.013 | 1.03 ± 0.016 | 1.06 ± 0.012 | 1.03 ± 0.013 | 1.12 ± 0.014 | 1.08 ± 0.031 | 1.05 ± 0.024 | 0.974 ± 0.0061 |
| HOSMNG BONE | 0.898 ± 0.073 | 0.97 ± 0.062 | 0.956 ± 0.044 | 0.937 ± 0.039 | 1.03 ± 0.03 | 0.957 ± 0.064 | 1.07 ± 0.029 | 1.22 ± 0.018 | 0.922 ± 0.073 | 0.948 ± 0.032 | 0.996 ± 0.083 | 0.963 ± 0.038 | 1.1 ± 0.017 | 1.06 ± 0.032 | 1.07 ± 0.077 | 1.03 ± 0.078 |
| HSSYII SYNOVIAL | 0.907 ± 0.018 | 1 ± 0.033 | 0.973 ± 0.015 | 0.987 ± 0.052 | 0.9 ± 0.061 | 0.954 ± 0.029 | 0.874 ± 0.029 | 0.785 ± 0.036 | 0.993 ± 0.029 | 1.04 ± 0.021 | 0.989 ± 0.075 | 1.02 ± 0.055 | 1.01 ± 0.035 | 0.993 ± 0.046 | 0.921 ± 0.07 | 0.968 ± 0.05 |
| HT1080 SOFT TISSUE | 1.02 ± 0.058 | 1.04 ± 0.032 | 1.06 ± 0.027 | 1.04 ± 0.011 | 0.991 ± 0.02 | 0.978 ± 0.027 | 0.98 ± 0.027 | 0.957 ± 0.027 | 1.07 ± 0.035 | 1.08 ± 0.018 | 1.08 ± 0.037 | 1.04 ± 0.018 | 1.01 ± 0.039 | 1.04 ± 0.023 | 1.07 ± 0.042 | 1.06 ± 0.035 |
| HU09 BONE | 0.958 ± 0.043 | 1.06 ± 0.1 | 0.999 ± 0.096 | 1.09 ± 0.051 | 0.861 ± 0.19 | 0.756 ± 0.067 | 0.481 ± 0.014 | 0.397 ± 0.075 | 1 ± 0.069 | 0.969 ± 0.057 | 1.02 ± 0.077 | 1.21 ± 0.1 | 1.13 ± 0.08 | 1.04 ± 0.065 | 0.971 ± 0.083 | 0.945 ± 0.038 |
| HUO3N1 BONE | 0.993 ± 0.012 | 0.986 ± 0.048 | 1.12 ± 0.047 | 1.08 ± 0.038 | 0.985 ± 0.051 | 1 ± 0.041 | 1.005 ± 0.0097 | 0.936 ± 0.054 | 1.06 ± 0.046 | 1.03 ± 0.038 | 1.1 ± 0.065 | 1.09 ± 0.029 | 1.12 ± 0.057 | 1.06 ± 0.043 | 0.932 ± 0.074 | 0.849 ± 0.033 |
| JIMT1 BREAST | 0.946 ± 0.041 | 0.955 ± 0.045 | 0.975 ± 0.039 | 0.964 ± 0.07 | 0.931 ± 0.054 | 0.958 ± 0.086 | 0.97 ± 0.045 | 0.924 ± 0.054 | 1.01 ± 0.045 | 0.972 ± 0.026 | 1 ± 0.032 | 0.994 ± 0.048 | 1.08 ± 0.065 | 1.05 ± 0.066 | 1.04 ± 0.08 | 0.939 ± 0.024 |
| JURKAT HAEMATOPOIETIC AND LYMPHOID TISSUE | 1.1 ± 0.025 | 1.1 ± 0.027 | 1.07 ± 0.029 | 1.06 ± 0.021 | 1.042 ± 0.009 | 1.02 ± 0.044 | 1.04 ± 0.026 | 0.91 ± 0.057 | 1.06 ± 0.023 | 1.03 ± 0.026 | 1.03 ± 0.021 | 1.04 ± 0.015 | 0.953 ± 0.024 | 0.935 ± 0.061 | 0.991 ± 0.011 | 1.03 ± 0.025 |
| KPD BONE | 1.04 ± 0.097 | 0.981 ± 0.038 | 1.06 ± 0.032 | 1.02 ± 0.026 | 1.03 ± 0.03 | 1.11 ± 0.055 | 0.925 ± 0.033 | 0.841 ± 0.028 | 1.03 ± 0.043 | 1.03 ± 0.022 | 1.14 ± 0.088 | 1.07 ± 0.043 | 1.132 ± 0.011 | 1.1 ± 0.04 | 0.976 ± 0.049 | 0.83 ± 0.035 |
| LM7 BONE | 1.02 ± 0.027 | 0.9597 ± 0.0087 | 1.07 ± 0.03 | 1.01 ± 0.043 | 0.898 ± 0.084 | 0.957 ± 0.076 | 0.79 ± 0.02 | 0.76 ± 0.07 | 1.02 ± 0.12 | 1.07 ± 0.039 | 1.06 ± 0.063 | 1.09 ± 0.075 | 1.15 ± 0.092 | 1.09 ± 0.039 | 1.03 ± 0.016 | 0.914 ± 0.058 |
| LNCAP PROSTATE | 1.12 ± 0.083 | 1.13 ± 0.12 | 1.08 ± 0.011 | 1.01 ± 0.072 | 1.14 ± 0.076 | 1.1 ± 0.15 | 1.16 ± 0.031 | 1.03 ± 0.066 | 1.08 ± 0.041 | 0.942 ± 0.1 | 1.04 ± 0.063 | 1 ± 0.098 | 1.06 ± 0.061 | 1.04 ± 0.087 | 1.02 ± 0.08 | 0.983 ± 0.088 |
| MCF7 BREAST | 0.969 ± 0.072 | 0.912 ± 0.05 | 0.948 ± 0.023 | 0.943 ± 0.017 | 0.992 ± 0.064 | 0.995 ± 0.073 | 0.942 ± 0.068 | 0.97 ± 0.078 | 1.02 ± 0.045 | 0.976 ± 0.045 | 0.917 ± 0.036 | 0.928 ± 0.045 | 0.877 ± 0.035 | 0.857 ± 0.037 | 0.834 ± 0.046 | 0.775 ± 0.012 |
| MDAMB134 BREAST | 0.803 ± 0.068 | 1.15 ± 0.12 | 0.865 ± 0.013 | 0.808 ± 0.15 | 0.74 ± 0.12 | 0.72 ± 0.099 | 0.672 ± 0.034 | 0.716 ± 0.13 | 1.32 ± 0.15 | 1.06 ± 0.073 | 1.05 ± 0.011 | 0.975 ± 0.088 | 1.16 ± 0.074 | 0.932 ± 0.037 | 0.887 ± 0.095 | 0.908 ± 0.089 |
| MDAMB157 BREAST | 1.11 ± 0.045 | 0.957 ± 0.047 | 1.09 ± 0.083 | 1.11 ± 0.041 | 1.1 ± 0.066 | 1.07 ± 0.018 | 0.932 ± 0.17 | 0.928 ± 0.063 | 1.04 ± 0.05 | 1.01 ± 0.062 | 1.04 ± 0.14 | 1.02 ± 0.072 | 1.06 ± 0.022 | 1.01 ± 0.014 | 0.942 ± 0.059 | 0.989 ± 0.12 |
| MDAMB231 BREAST | 0.935 ± 0.052 | 0.919 ± 0.025 | 0.866 ± 0.036 | 0.839 ± 0.038 | 0.763 ± 0.043 | 0.857 ± 0.017 | 0.923 ± 0.036 | 0.866 ± 0.039 | 0.987 ± 0.017 | 1.01 ± 0.032 | 1.01 ± 0.045 | 1.01 ± 0.023 | 1.02 ± 0.024 | 1.02 ± 0.018 | 1.01 ± 0.024 | 0.955 ± 0.035 |
| MDAMB361 BREAST | 0.632 ± 0.033 | 0.953 ± 0.057 | 0.69 ± 0.11 | 0.743 ± 0.06 | 0.533 ± 0.078 | 0.601 ± 0.059 | 0.619 ± 0.02 | 0.539 ± 0.1 | 0.875 ± 0.038 | 0.832 ± 0.096 | 0.756 ± 0.061 | 0.815 ± 0.11 | 0.854 ± 0.081 | 0.856 ± 0.037 | 1.09 ± 0.078 | 0.782 ± 0.013 |
